Measurements from US9096543B2, “Nuclear transport modulators and uses thereof” (Karyopharm Therapeutics Inc., priority 2012, dated 2015).
“Also recorded” adds a separate entry of the source.

Key:
obese Zucker rats = assay: Food intake and body weight in Zucker rats; format: in vivo
Experimental: Twenty-one (21) male Zucker rats aged 7 months were allocated into 3 groups of N=7 based on equivalent body weights and food intakes. An additional group of N=7 age matched Zucker lean controls were included as a control. Body weights and food and water intakes were measured at approximately the same time each day (14:30-15:30 h). On treatment days, dosing was at 14:30-15:30 h (approximately 2 hours before lights off).
The Zucker obese and lean controls were orally treated with vehicle (10 mL/kg dose volume; 0.5% Pluronic F68 and 0.5% PVP K29/32 in water) on each weekday. Both Compound 2 (1.5 mg/kg and 3 mg/kg) groups were orally treated on each weekday (10 mL/kg dose volume; 0.5% Pluronic F68 and 0.5% PVP K29/32 in water). Prior to the treatment phase, 4 days baseline data were collected. The treatment phase was for 16 days and a washout phase of 6 days was also included.

CRM1 = biological target: T1, CRM1 (Homo sapiens, UniProt O14980); assay: RevGFP assay: inhibition of CRM1 mediated nuclear export; format: cell-based; conditions: U2OS-RevGFP cells, ~1 hr with compound; read-out: Rev Export [IC50]
T1 construct: endogenous in cells; host or cells: U2OS-RevGFP cells
Experimental: The inhibition of CRM1 mediated nuclear export by compounds of the invention was determined. The inhibitory activity of compounds for the CRM1 protein was determined in the RevGFP assay.
Experimental protocol: Rev is a protein from human immunodeficiency virus type 1 (HIV-1) and contains a nuclear export signal (NES) in its C-terminal domain and a nuclear localization signal (NLS) in its N-terminal domain. Nuclear export of Rev protein is dependent on the classical NES/CRM1 pathway (Neville et al, 1997, Kau et al, 2003). Nuclear accumulation of Rev is observed in cells treated with specific inhibitors of CRM1, such as LMB (Kau et al, 2003). In this assay, U2OS-RevGFP cells are seeded onto clear-bottom, black, 384-well plates the day before the experiment. Compounds are serially diluted 1:2 starting from 40 μM in a separate 384-well plate in DMEM, and then transferred onto cells. Cells are incubated with compound for ˜1 hr before fixation with 3.7% formaldehyde and nuclei staining with Hoechst 33258. The amount of GFP in cell nuclei was measured and compound IC50s were determined (Kau et al, 2003).

COX-2 = COX-2 protein expression in HeLa cells (immunoblot); format: cell-based; conditions: 1 μM Compound 1 + 20 ng/ml TNFα, 24 hours
Experimental: HeLa cells were plated in a 6-well culture dish (5×10^5 cells/well) with EMEM medium (Lonza) supplemented with 10% heat-inactivated fetal bovine serum (Invitrogen). Two of the wells of the plate were pre-treated with 1 μM of Compound 1 for 30 minutes, at which time one of the wells was exposed to 20 ng/ml TNFα (Preprotech) for 24 hours. The other wells were treated with either 20 ng/ml TNFα or nothing for 24 hours. Following the treatment, whole-cell lysates were generated from the cells by lysis with RIPA buffer supplemented with protease and phosphatase inhibitors (Roche). Immunoblot detection of COX-2 protein was performed using an anti-COX-2 antibody (Cayman). Signal intensity for the COX-2 protein was normalized to that of beta-actin (Santa Cruz) for each sample and plotted graphically as arbitrary intensity units.

skin wounds = assay: Longitudinal full thickness skin incision wound model in mice; format: in vivo, C57BL/6J mice; conditions: Day 5 post-wounding; oral 4 or 7.5 mg/kg every other day, or topical 1 or 2.5 μM daily
Description: The effects of Compound 1 on skin wound healing were studied in a mouse longitudinal full thickness skin incision wound model. Upon arrival, animals were identified by ear tags, weighed and left to acclimate for several days before initiation of the experiment. On the day of wounding, mice were weighed and divided into 6 experimental groups with 6 animals per group, in accordance to weight differences stratified randomization. Prior to the surgical procedure, mice were anesthetized with isoflurane and the back of the animals was trimmed. Full thickness longitudinal incisions of 20 mm were performed using a standard scalpel blade on the backs of the animals (parallel to the backbone). Three hours after wounding, due to skin elasticity and activity of the animals, the incisions took on elliptical shapes. At this stage, the widest area of the wound was measured to establish a baseline wound width. Wound healing evaluation was made by measuring the widest area of the wound. Treatment groups consisted of oral gavage or topical groups. During the experiment, wounds were photo-documented and morphological analysis was performed. At the end of the experiment, 8 days post wounding, mice were sacrificed, wound widths were measured and biopsies of the wound area were collected and subjected to analysis.
Dosing solutions were prepared fresh on each day of dosing. […]

[1] = tested on: BCCI injury to the medial frontal cortex; assay: Morris Water Maze after bilateral controlled cortical impact (BCCI) injury in rats; format: in vivo, Sprague Dawley rats
Experimental: Bilateral controlled cortical impact (BCCI) injury to the medial frontal cortex (MFC) of male Sprague Dawley rats was induced by a cortical contusion device. After CCI any cortical surface hemorrhaging was controlled, and the fascia and scalp were sutured. Sham-operated rats were anesthetized, mounted in the stereotaxic apparatus, and a craniotomy was performed.
Compound 10.2, 0.4, and 0.6 mg/mL was suspended in vehicle (0.6% w/v Pluronic® F-68 and 0.6% w/v PVP K-29/32 in water) and administered p.o at a concentration of 10 mL/kg, 16 h before injury and 2 h after injury, and administrations were continued for 4 days. Control rats received equivalent injections of the vehicle for Compound 1, at the same time points.
The Morris Water Maze (MWM) test is a spatial navigation task that measures learning and memory in rodents using visual cues. Subjects learn over the course of days to find a hidden platform. A MWM test was conducted two weeks after injury. Male Sprague Dawley rats were allowed to swim in the pool until they reached the platform located in the southwest quadrant of a tank, or until 90 seconds had elapsed. Behavior was tracked by a video camera hanging from above the pool and recorded and analyzed using video track software (ANY-maze).

T1 sequence (O14980 whole entry): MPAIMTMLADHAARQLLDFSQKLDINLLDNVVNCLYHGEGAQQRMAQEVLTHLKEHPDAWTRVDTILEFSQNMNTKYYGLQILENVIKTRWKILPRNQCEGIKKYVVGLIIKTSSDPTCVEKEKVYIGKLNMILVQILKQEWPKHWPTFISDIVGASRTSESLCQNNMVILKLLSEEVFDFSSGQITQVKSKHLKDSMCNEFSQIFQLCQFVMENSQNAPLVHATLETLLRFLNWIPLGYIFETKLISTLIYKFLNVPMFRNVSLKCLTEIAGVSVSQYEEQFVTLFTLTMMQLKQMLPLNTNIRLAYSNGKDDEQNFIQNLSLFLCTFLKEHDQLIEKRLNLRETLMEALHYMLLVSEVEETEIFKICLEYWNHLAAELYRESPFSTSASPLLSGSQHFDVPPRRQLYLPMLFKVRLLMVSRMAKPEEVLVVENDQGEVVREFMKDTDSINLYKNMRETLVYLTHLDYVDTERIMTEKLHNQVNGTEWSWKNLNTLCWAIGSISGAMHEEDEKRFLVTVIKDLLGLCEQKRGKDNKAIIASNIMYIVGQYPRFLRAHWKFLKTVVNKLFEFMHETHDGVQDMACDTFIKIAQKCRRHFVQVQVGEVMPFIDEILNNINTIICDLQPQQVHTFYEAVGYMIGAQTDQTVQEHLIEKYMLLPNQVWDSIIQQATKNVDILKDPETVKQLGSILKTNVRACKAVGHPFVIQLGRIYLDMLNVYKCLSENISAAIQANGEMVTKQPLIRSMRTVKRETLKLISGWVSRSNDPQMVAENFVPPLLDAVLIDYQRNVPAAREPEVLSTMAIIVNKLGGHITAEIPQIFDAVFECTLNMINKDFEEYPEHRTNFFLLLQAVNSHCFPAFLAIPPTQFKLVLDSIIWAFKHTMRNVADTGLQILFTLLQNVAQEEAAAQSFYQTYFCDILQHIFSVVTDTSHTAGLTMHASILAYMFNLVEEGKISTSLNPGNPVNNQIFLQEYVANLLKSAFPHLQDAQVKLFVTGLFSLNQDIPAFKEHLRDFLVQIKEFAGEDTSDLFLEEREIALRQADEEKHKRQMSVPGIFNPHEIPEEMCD

In the case of O=C(/C=C\n1cnc(-c2cc(C(F)(F)F)cc(C(F)(F)F)c2)n1)NNC(=O)CN1CCOCC1 [Compound 2, (Z)-3-(3-(3,5-bis(trifluoromethyl)phenyl)-1H-1,2,4-triazol-1-yl)-N′-(2-morpholinoacetyl)acrylohydrazide], the “body weight gain versus Zucker vehicle group” value (obese Zucker rats; 3 mg/kg oral) is reported as “lower weight gain in comparison to the Zucker control group”, the “daily food intake and body weight compared to Zucker control group” value (obese Zucker rats; 1.5-3 mg/kg oral each weekday, 16 day treatment period) is reported as “dose-related decrease in daily food intake and body weight; also recorded: dose dependent decrease in daily food effect” and the IC50 (CRM1) is reported as under 1 µM.
In the case of CC(C)(C)C(=O)NNC(=O)/C=C\n1cnc(-c2cc(C(F)(F)F)cc(C(F)(F)F)c2)n1 [Compound 1, (Z)-3-(3-(3,5-bis(trifluoromethyl)phenyl)-1H-1,2,4-triazol-1-yl)-N′-pivaloylacrylohydrazide], the COX-2 protein expression (COX-2) is reported as “decreased the amount of COX-2 protein in the presence of TNFα; also recorded: does reduce the amount of TNFα induced expression of COX-2 protein; also recorded: inhibits TNFα-induced COX-2 protein expression”, the wound morphology assessment (skin wounds) is reported as “positive effect; also recorded: displayed efficacy, and had a positive impact on wound healing; also recorded: better wound healing, as measured by wound size reduction and better scabbing properties” and the “days after injury with significant effect on latency” value ([1]; 4 mg/kg p.o.) is reported as 18. The “latency to find the hidden platform (MWM acquisition) compared to vehicle-treated BCCI-injured rats” value ([1]; 2, 4 and 6 mg/kg p.o.) was “dose dependent decrease in the latency to find the hidden platform”.
